Measurements as given in patent US20230129438A1, “IMMUNOMODULATING IMINE-OXAZOLINE AZALIDES” (Zoetis Services LLC, priority 2020, published 2023).
pIC50: −log10 of the molar value. Marks after values point to notes of the source that are not given here.

Key:
S. aureus = assay: In-vitro MIC model, S. aureus; conditions: S. aureus ATCC 29213
M. haemolytica = assay: In-vitro MIC model, M. haemolytica; type: cell-based
E. coli = assay: In-vitro MIC model, E. coli
P. multocida = assay: In-vitro MIC model, P. multocida; type: cell-based
IL-1β = assay: Bovine whole blood assay, IL-1β; type: cell-based; conditions: drug concentration giving overstimulation of IL-1β over LPS (cellular toxicity signal)
Method: (§1) (protected from light) for 30 minutes.

TNF-α = assay: Bovine whole blood assay, LPS-induced TNF-α; type: cell-based; conditions: LPS 1 μg/mL
Method: as §1

P. multocida 46572 = assay: In vivo mouse lung infection challenge model (murine efficacy model); conditions: 20 mg/kg subcutaneous, CD-1 mice, intranasal challenge, to Day 10; approximate (~%), harmonized relative to vehicle and M9
[1] = system: BRD pathogens, M. haemolytica and P. multocida; assay: In-vitro MIC model, BRD pathogen screening panel; type: cell-based; conditions: asterisk = at least one BRD bacterial isolate
[2] = M. haemolytica 46571, bovine efficacy challenge strain
[3] = P. multocida 46572, murine efficacy challenge strain

| Molecule | MIC (S. aureus) | MIC (M. haemolytica; M. haemolytica 12726) | MIC (M. haemolytica; [2]) | MIC (M. haemolytica; M. haemolytica ATCC 33396) | MIC (E. coli; E. coli ATCC 25922) | MIC (E. coli; E. coli W3110) | MIC (P. multocida; [3]) | MIC (P. multocida; P. multocida ATCC 43137) | IL-Iβ OS of LPS (IL-1β) | pIC50 (TNF-α) | % Survival (P. multocida 46572) | MIC flag on Ex# (Table A) [1] | MIC flag on Ex# (Table C) [1] |
| --- | --- | --- | --- | --- | --- | --- | --- | --- | --- | --- | --- | --- | --- |
| CCCNC[C@]1(O)[C@H](C)O[C@@H](O[C@H]2[C@H](C)[C@@H](O[C@@H]3O[C@H](C)C[C@H]4[C@H]3OC(=NCC(F)(F)F)N4C)[C@](C)(O)C[C@@H](C)CN[C@H](C)[C@@H](O)[C@](C)(O)[C@@H](CC)OC(=O)[C@@H]2C)C[C@@]1(C)OC (mixture of isomers) [Example A-4, (E/Z)-(2R,3S,4R,5R,8R,10R,11R,12S,13S,14R)-11-(((3aR,4S,6R,7aS)-1,6-dimethyl-2-((2,2,2-trifluoroethyl)imino)hexahydro-2H-pyrano[4,3-d]oxazol-4-yl)oxy)-2-ethyl-3,4,10-trihydroxy-13-(((2R,4R,5S,6S)-5-hydroxy-4-methoxy-4,6-dimethyl-5-((propylamino)methyl)tetrahydro-2H-pyran-2-yl)oxy)-3,5,8,10,12,14-hexamethyl-1-oxa-6-azacyclopentadecan-15-one] | >64 µg/mL | >64 µg/mL | >64 µg/mL | >64 µg/mL | >64 µg/mL | >64 µg/mL | >64 µg/mL | >64 µg/mL | – | – | – | – | – |
| CCCNC[C@]1(O)[C@H](C)O[C@@H](O[C@H]2[C@H](C)[C@@H](O[C@@H]3O[C@H](C)C[C@H]4[C@H]3OC(=Nc3ccc(OC)cc3)N4C)[C@](C)(O)C[C@@H](C)CN[C@H](C)[C@@H](O)[C@](C)(O)[C@@H](CC)OC(=O)[C@@H]2C)C[C@@]1(C)OC (mixture of isomers) [Example A-9, (E/Z)-(2R,3S,4R,5R,8R,10R,11R,12S,13S,14R)-2-ethyl-3,4,10-trihydroxy-13-(((2R,4R,5S,6S)-5-hydroxy-4-methoxy-4,6-dimethyl-5-((propylamino)methyl)tetrahydro-2H-pyran-2-yl)oxy)-11-(((3aR,4S,6R,7aS)-2-((4-methoxyphenyl)imino)-1,6-dimethylhexahydro-2H-pyrano[4,3-d]oxazol-4-yl)oxy)-3,5,8,10,12,14-hexamethyl-1-oxa-6-azacyclopentadecan-15-one] | >64 µg/mL | >64 µg/mL | >64 µg/mL | >64 µg/mL | >64 µg/mL | >64 µg/mL | >64 µg/mL | >64 µg/mL | 13 µM | > 5.30 | 64% | – | – |
| CCCNC[C@]1(O)[C@H](C)O[C@@H](O[C@H]2[C@H](C)[C@@H](O[C@@H]3O[C@H](C)C[C@H]4[C@H]3OC(=Nc3ccc(OC)nc3)N4C)[C@](C)(O)C[C@@H](C)CN[C@H](C)[C@@H](O)[C@](C)(O)[C@@H](CC)OC(=O)[C@@H]2C)C[C@@]1(C)OC (mixture of isomers) [Example A-17, (E/Z)-(2R,3S,4R,5R,8R,10R,11R,12S,13S,14R)-2-ethyl-3,4,10-trihydroxy-13-(((2R,4R,5S,6S)-5-hydroxy-4-methoxy-4,6-dimethyl-5-((propylamino)methyl)tetrahydro-2H-pyran-2-yl)oxy)-11-(((3aR,4S,6R,7aS)-2-((6-methoxypyridin-3-yl)imino)-1,6-dimethylhexahydro-2H-pyrano[4,3-d]oxazol-4-yl)oxy)-3,5,8,10,12,14-hexamethyl-1-oxa-6-azacyclopentadecan-15-one] | >64 µg/mL | >64 µg/mL | >64 µg/mL | >64 µg/mL | >64 µg/mL | >64 µg/mL | >64 µg/mL | >64 µg/mL | – | – | 37% | – | – |
| CCCNC[C@]1(O)[C@H](C)O[C@@H](O[C@H]2[C@H](C)[C@@H](O[C@@H]3O[C@H](C)C[C@H]4[C@H]3OC(=Nc3ccccc3)N4Cc3ccccc3)[C@](C)(O)C[C@@H](C)CN[C@H](C)[C@@H](O)[C@](C)(O)[C@@H](CC)OC(=O)[C@@H]2C)C[C@@]1(C)OC (mixture of isomers) [Example A-33, (E/Z)-(2R,3S,4R,5R,8R,10R,11R,12S,13S,14R)-11-(((3aR,4S,6R,7aS)-1-benzyl-6-methyl-2-(phenylimino)hexahydro-2H-pyrano[4,3-d]oxazol-4-yl)oxy)-2-ethyl-3,4,10-trihydroxy-13-(((2R,4R,5S,6S)-5-hydroxy-4-methoxy-4,6-dimethyl-5-((propylamino)methyl)tetrahydro-2H-pyran-2-yl)oxy)-3,5,8,10,12,14-hexamethyl-1-oxa-6-azacyclopentadecan-15-one] | – | – | – | – | – | – | – | – | 2 µM | 5.10 | – | A-33* (an MIC ≤ 64 μg/mL for at least one BRD bacterial isolate) | – |
| CC[C@H]1OC(=O)[C@H](C)[C@@H](O[C@H]2C[C@@](C)(OC)[C@](O)(CN3CCOCC3)[C@H](C)O2)[C@H](C)[C@@H](O[C@@H]2O[C@H](C)C[C@H]3[C@H]2OC(=Nc2ccccc2)N3C)[C@](C)(O)C[C@@H](C)CN[C@H](C)[C@@H](O)[C@]1(C)O (mixture of isomers) [Example B-3, (E/Z)-(2R,3S,4R,5R,8R,10R,11R,12S,13S,14R)-11-(((3aR,4S,6R,7aS)-1,6-dimethyl-2-(phenylimino)hexahydro-2H-pyrano[4,3-d]oxazol-4-yl)oxy)-2-ethyl-3,4,10-trihydroxy-13-(((2R,4R,5S,6S)-5-hydroxy-4-methoxy-4,6-dimethyl-5-(morpholinomethyl)tetrahydro-2H-pyran-2-yl)oxy)-3,5,8,10,12,14-hexamethyl-1-oxa-6-azacyclopentadecan-15-one] | >64 µg/mL | >64 µg/mL | >64 µg/mL | >64 µg/mL | >64 µg/mL | >64 µg/mL | >64 µg/mL | >64 µg/mL | – | – | – | – | – |
| CC[C@H]1OC(=O)[C@H](C)[C@@H](O[C@H]2C[C@@](C)(OC)[C@@H](O)[C@H](C)O2)[C@H](C)[C@@H](O[C@@H]2O[C@H](C)C[C@H]3[C@H]2OC(=Nc2ccc(F)cc2)N3C)[C@](C)(O)C[C@@H](C)CN[C@H](C)[C@@H](O)[C@]1(C)O (mixture of isomers) [Example C-1, (E/Z)-(2R,3S,4R,5R,8R,10R,11R,12S,13S,14R)-2-ethyl-11-(((3aR,4S,6R,7aS)-2-((4-fluorophenyl)imino)-1,6-dimethylhexahydro-2H-pyrano[4,3-d]oxazol-4-yl)oxy)-3,4,10-trihydroxy-13-(((2R,4R,5S, 6S)-5-hydroxy-4-methoxy-4,6-dimethyltetrahydro-2H-pyran-2-yl)oxy)-3,5,8,10,12,14-hexamethyl-1-oxa-6-azacyclopentadecan-15-one] | – | – | – | – | – | – | – | – | – | – | – | – | C-1* (MIC ≤ 64 μg/mL for at least one BRD bacterial isolate) |
| CC[C@H]1OC(=O)[C@H](C)[C@@H](O[C@H]2C[C@@](C)(OC)[C@@H](O)[C@H](C)O2)[C@H](C)[C@@H](O[C@@H]2O[C@H](C)C[C@H]3[C@H]2OC(=Nc2ccc(OC)cc2)N3C)[C@](C)(O)C[C@@H](C)CN[C@H](C)[C@@H](O)[C@]1(C)O (mixture of isomers) [Example C-3, (E/Z)-(2R,3S,4R,5R,8R,10R,11R,12S,13S,14R)-2-ethyl-3,4,10-trihydroxy-13-(((2R,4R,5S,6S)-5-hydroxy-4-methoxy-4,6-dimethyltetrahydro-2H-pyran-2-yl)oxy)-11-(((3aR,4S,6R,7aS)-2-((4-methoxyphenyl)imino)-1,6-dimethylhexahydro-2H-pyrano[4,3-d]oxazol-4-yl)oxy)-3,5,8,10,12,14-hexamethyl-1-oxa-6-azacyclopentadecan-15-one] | – | – | – | – | – | – | – | – | – | – | – | – | C-3* (MIC ≤ 64 μg/mL for at least one BRD bacterial isolate) |
| CC[C@H]1OC(=O)[C@H](C)[C@@H](O[C@H]2C[C@@](C)(OC)[C@@H](O)[C@H](C)O2)[C@H](C)[C@@H](O[C@@H]2O[C@H](C)C[C@H]3[C@H]2OC(=Nc2ccccc2)N3C)[C@](C)(O)C[C@@H](C)CN[C@H](C)[C@@H](O)[C@]1(C)O (mixture of isomers) [Example C-4, (E/Z)-(2R,3S,4R,5R,8R,10R,11R,12S,13S,14R)-11-(((3aR,4S,6R,7aS)-1,6-dimethyl-2-(phenylimino)hexahydro-2H-pyrano[4,3-d]oxazol-4-yl)oxy)-2-ethyl-3,4,10-trihydroxy-13-(((2R,4R,5S,6S)-5-hydroxy-4-methoxy-4,6-dimethyltetrahydro-2H-pyran-2-yl)oxy)-3,5,8,10,12,14-hexamethyl-1-oxa-6-azacyclopentadecan-15-one] | – | – | – | – | – | – | – | – | – | – | – | – | C-4* (MIC ≤ 64 μg/mL for at least one BRD bacterial isolate) |
| (E/Z)-(2R,3S,4R,5R,8R,10R,11R,12S,13S,14R)-2-ethyl-3,4,10-trihydroxy-13-(((2R,4R,5S,6S)-5-hydroxy-4-methoxy-4,6-dimethyltetrahydro-2H-pyran-2-yl)oxy)-11-(((3aR,4S,6R,7aS)-2-((6-methoxypyridin-3-yl)imino)-1,6-dimethylhexahydro-2H-pyrano[4,3-d]oxazol-4-yl)oxy)-3,5,8,10,12,14-hexamethyl-1-oxa-6-azacyclopentadecan-15-one [Example C-2] | – | – | – | – | – | – | – | – | – | – | – | – | C-2* (MIC ≤ 64 μg/mL for at least one BRD bacterial isolate) |
